The format of series [1] is in vivo. How it is done: Evaluation results of sweetness of test product compared with control • ∘: Sweetness was enhanced compared to the control. • ◇: Sweetness was similar to that of the control. […]
A drinking test by a panel of three experts was conducted on the prepared soy milk to which ERG was added at each concentration (the concentration was not disclosed to the panel), using a prepared soy milk to which no ergothioneine was added (ERG0) as a control, and the sweetness was sensorially evaluated by a paired comparison test.

Series [2] is described as follows: Test 1: sensory evaluation by expert panel, selection of sucrose sample of equivalent sweetness. Format: in vivo. The conditions noted are these: 2% sucrose sample containing 60 ppm ERG; all the five panelists. How it is done:
Sucrose was added to pure water to prepare sucrose samples having six concentrations of 0%, 1%, 1.5%, 2%, 2.5%, and 3%; and as a seventh sample, a sample in which purified ergothioneine (purity: 99.5% or more, Tetrahedron) was added to 2% sucrose to a final concentration of 60 ppm was prepared.
The sweetness was evaluated by a sensory evaluation by an expert panel consisting of five trained sweetness-sensitive subjects. The panel of five experts was asked to select a sample having an equivalent sweetness from among the 1st to 6th sucrose samples (the concentration was not disclosed to the panel) regarding the sweetness of the 7th 2% sucrose sample containing 60 ppm ERG. After tasting each sample and before tasting the next sample, the mouth was completely rinsed with water at room temperature.

Series [3] is classed as in vivo. Conditions: milk. As to the method: (§1) Evaluation results of sweetness of test product compared with control • ∘: Sweetness was enhanced compared to the control. • ◇: Sweetness was similar to that of the control.
Samples of milk (EGR0.5 to 20) were prepared by adding ergothioneine to commercially available milk to final concentrations of 0.5 ppm, 1 ppm, 3 ppm, 5 ppm, 10 ppm, and 20 ppm.
A drinking test by a panel of three experts was conducted on the milk to which ERG was added at each concentration (the concentration was not disclosed to the panel), using a milk to which no ergothioneine was added (ERG0) as a control, and the sweetness was sensorially evaluated by a paired comparison test.

Series [4] is classed as in vivo. The conditions noted are these: amakuchi soy sauce. How it is done:
as §1
A drinking test by a panel of three experts was conducted on the soy sauce to which ERG was added at each concentration (the concentration was not disclosed to the panel), using a soy sauce to which no ergothioneine was added (ERG0) as a control, and the sweetness was sensorially evaluated by a paired comparison test.
The same test as in (1) described above was conducted by adding ERG to a commercially available amakuchi soy sauce (Golden Murasaki, Fundokin Shoyu).

Series [5] is classed as in vivo. The conditions noted are these: 4% sucrose. As to the method: as §1
Samples (ERG5 to 900) were prepared by adding ergothioneine to a 4% sucrose solution to final concentrations of 5 ppm, 20 ppm, 60 ppm, 100 ppm, 400 ppm, and 900 ppm, and a drinking test by an expert panel of four, different from those in Tests 1 and 2, was conducted on the 4% sucrose samples to which ERG was added at each concentration (the concentration was not disclosed to the panel), and sweetness was sensorially evaluated.
Pairs combining the control 4% sucrose sample of Table 3 below and the 4% sucrose sample containing ergothioneine at each concentration were presented to the expert panel, and the panel evaluated which sample of the presented pair was perceived to be sweeter by a paired comparison test.

Series [6] is classed as in vivo.
Description: as §1
Pairs combining a control 50% glucose sample to which ergothioneine was not added and a 50% glucose sample containing ergothioneine at each concentration were presented to the expert panel of four, and the panel evaluated which sample of the presented pair was perceived to be sweeter by a paired comparison test.
The same test as in the 50% glucose solution of (1) described above was conducted on a 10% glucose solution using the samples (ERG0 to 20) shown in Table 6.
The source holds these as a separate data set.

Series [7] is classed as in vivo. Conditions: 50% trehalose samples. As to the method:
as §1
In the following Test 9, sensory evaluation was performed by a panel of three experts in the same paired comparison test as in Tests 3, 5, and 7.
Samples were prepared by adding ergothioneine to a 50% trehalose sample to final concentrations of 0.5 ppm, 1 ppm, 3 ppm, 5 ppm, 10 ppm, and 20 ppm (Table 11, ERG0 to 20).
For the 50% trehalose samples to which ERG was added at each concentration (the concentration was not disclosed to the panel), pairs combining a control 50% trehalose sample and a 50% trehalose sample containing ergothioneine at each concentration were presented to the expert panel, and the panel evaluated which sample of the presented pair was perceived to be sweeter by a paired comparison test.

A further series in a line: physchem. Conditions: 10% (100,000 ppm) dissolved in water at 40°C, left at 4°C; ERG precipitated 1 day later; read-out: concentration at which ERG could be contained in water. It counts as physicochemical. As to the method: ERG was dissolved in water at 40°C so that the ergothioneine concentration became 10% (100,000 ppm), and then left to stand at 4°C. When the solution was checked 1 day later, ERG was precipitated. From the above, the concentration at which ERG could be contained in water was less than 10%.

The nature of series [8]: Test 9 (3): paired comparison test of sweetness, 50% starch syrup sample. Format: in vivo. The conditions noted are these: 50% starch syrup samples.
Description: Samples were prepared by adding ERG to a 50% starch syrup sample of a highly saccharified reduced starch syrup rich in monosaccharide alcohols and disaccharide alcohols (SE 600, Bussan Food Science Co., Ltd.) to the ERG concentrations shown in Table 14 (ERG0 to 10). Pairs combining a control 50% starch syrup sample and a 50% starch syrup sample containing ERG at each concentration were presented, and the panel evaluated which sample of the presented pair was perceived to be sweeter by a paired comparison test.
Series [9] is classed as in vivo. Conditions: amazake. As to the method:
as §1
1,250 g of white rice was soaked in water overnight, transferred to a colander, and drained for 2 hours. Thereafter, the rice was wrapped in a Tetoron cloth and steamed at 100°C for 40 minutes. The steamed rice was cooled to 45°C, and a seed koji was inoculated. The rice was wrapped in a Pylen cloth, and koji-making was started under the conditions of 35°C and 95% humidity. 19 hours after the start of koji-making, the rice koji was loosened and wrapped again in the Pylen cloth. When the product temperature reached 40°C, the Pylen cloth was spread and the rice koji was leveled. After another 40 hours, the rice koji was well loosened and left to stand again. After 42 hours, the koji was taken out. […]
The sweetness of the amazake was sensorially evaluated by an expert panel consisting of five trained sweetness-sensitive subjects.
Pairs combining amazake containing ERG at different concentrations shown in Table 19 (ERG12 to 345) were presented to the expert panel of five, and the panelists evaluated which sample of the presented pair was perceived to be sweeter by a paired comparison test.

The text below walks through data of patent publication EP4817428A1, “SWEETNESS ENHANCER CONTAINING ERGOTHIONEINE AS ACTIVE INGREDIENT, AND FOOD OR BEVERAGE PRODUCT CONTAINING SAME” (Kikkoman Corporation, priority 2023, dated 2025).

Like-named read-outs stand apart in the source and are kept apart here.

Consider `C[N+](C)(C)[C@@H](Cc1c[nH]c(=S)[nH]1)C(=O)[O-]` [ERG, Ergothioneine], for which, in [1] (prepared soy milk), the “ERG content at which all the panelists evaluated the enhancement of sweetness” value is 5 ppm. In addition, in series [1] (prepared soy milk), the “ERG content at which two panelists evaluated that the sweetness was enhanced” value stood at 3 ppm. For the same molecule, in [1] (prepared soy milk containing 40 ppm of ERG), the creamy feel entry is given as “increased”. For the same molecule, the “sucrose solution of equivalent sweetness” value in series [2] is recorded as 2.5%. In addition, the results for the “ERG content at which all the panelists evaluated that the sweetness was enhanced” value in series [3] and in [9] were 5 ppm and at least 30 ppm, respectively. The “ERG added at which all the panelists evaluated that the sweetness was enhanced” value was at least 10 ppm in series [4], at least 0.5 ppm in series [6] (10% glucose solution), at least 0.5 ppm in [7] and at least 0.5 ppm in series [8]. Further, the “ERG concentration at which the sweetness-enhancing effect became constant” value in series [5] amounted to 100 ppm; in [6] (10% glucose), 60 ppm. Besides, the “ERG having a sweetness-enhancing effect, based on the glucose content” value in [6] (10% glucose solution) is given as at least 0.0005 % by weight. The “ERG having a sweetness-enhancing effect, based on the trehalose content” value in [7] is reported as at least 0.0001 % by weight. Besides, the solubility at 24 h in “physchem” is under 100 mg/mL. Moreover, the “ERG content above which the degree of sweetness enhancement did not change” value in series [9] (345 ppm judged equivalent by a majority of the panelists) is on record as 145 ppm.
